Literature values as cited in US11717498B2, “Methods of treatment using amphetamine controlled release, prodrug, and abuse deterrent dosage forms” (CHEMAPOTHECA, LLC, priority 2013, dated 2023).

Details: l-form versus d-form

SMILES: CC(C)NC[C@H](O)COc1cccc2ccccc12 [l-form of propranolol, propranolol]
- potency relative to the d-form: about 100 times
